US20040175378A1, “Selected antibody compositions and methods for binding to aminophospholipids” (Board of Regents, The University of Texas System, priority 2002, published 2004)

Tests used:
[1] = system: anionic phospholipids on vascular endothelium; experiment: Localization of 9D2 and annexin V in tumor bearing mice, indirect immunohistochemistry; format: in vivo; settings: 50 μg antibody or 100 μg biotinylated annexin V i.v., 60 min
Procedure: To detect externally-positioned phospholipids, methods were performed essentially as previously described (Example V; Ran et al., 1998). Tumor-bearing SCID mice were injected intravenously with either 50 μg of 9D2 or biotinylated 9D2 antibody or 100 μg of biotinylated annexin V. Sixty min later mice were sacrificed and their blood circulation was exsanguinated and perfused with heparinized saline as previously described (Burrows et al., 1992). All major organs and tumor were harvested and snap-frozen for preparation of cryosections.
Sections were blocked with PBS containing 10% serum. To prevent loss of phospholipids during slide processing, detergents and organic solvents were omitted from blocking and washing buffers. Rat IgM was detected using goat anti rat IgM (μ specific)-HRP conjugate followed by development with carbazole or DAB (Fries et al., 1993). Biotinylated reagents were detected by streptavidin conjugated to HRP.
Tumor sections derived from mice injected with saline or rat IgM of irrelevant specificity served as negative controls. […] No signal was detected under these conditions. The number of positive vessels per high power field was determined at magnification of ×100. At least 10 fields per section were examined and the average percentage of positive vessels was calculated. […]
Structures with localized 9D2 antibody or annexin V were identified as blood vessels by morphological appearance on DAB-stained sections and by co-incident staining with the pan-endothelial cell marker, MECA 32 on serial sections of frozen tissues. Quantification on DAB-stained sections was done by counting vessels stained by MECA 32, 9D2 or annexin V in serial sections of a tumor. […] At least 10 random fields per section (0.317 mm^2/field) were scored in blinded fashion by two independent observers. The mean numbers and standard errors of vessels stained by 9D2, annexin V or MECA 32 were calculated. The mean number of 9D2 or annexin V-positive vessels determined in each tumor type group was compared to the mean number of MECA 32-positive vessels in the same tumor group. […]

[2] = system: blood vessels of L540 Hodgkin tumors; experiment: Annexin V inhibition of coaguligand-induced thrombosis in vivo; design: species or system SCID mice; settings: 100 μg Annexin V 2 hours before 40 μg anti-VCAM-1•tTF
Procedure: The ability of Annexin V to inhibit coaguligand-induced thrombosis in vivo was examined in L540 Hodgkin-bearing SCID mice. Tumors were grown in mice and two mice per group (tumor size 0.5 cm in diameter) were injected intravenously via the tail vein with one of the following reagents: a) saline; b) 100 μg of Annexin V; c) 40 μg of anti-VCAM-1•tTF; d) 100 μg of Annexin V followed 2 hours later by 40 μg of anti-VCAM-1•tTF.
Four hours after the last injection mice were anesthetized and perfused with heparinized saline. Tumors were removed, fixed with 4% formalin, paraffin-embedded and stained with hematoxylene-eosin. The number of thrombosed and non-thrombosed blood vessels was counted and the percentage of thrombosis was calculated.

Factor X = experiment: Chromogenic assay of coaguligand-induced Factor Xa formation on bEnd.3 cells; format: cell-based; settings: Annexin V 10 μg per ml; cells preincubated with anti-VCAM-1•tTF
Procedure: The ability of Annexin V to affect Factor Xa formation induced by coaguligand was determined by a chromogenic assay. IL-1α-stimulated bEnd.3 cells were incubated with anti-VCAM-•tTF and permeabilized by saponin. Annexin V was added at concentrations ranging from 0.1 to 10 μg/ml and cells were incubated for 30 min. before addition of diluted Proplex T. The amount of Factor Xa generated in the presence or absence of Annexin V was determined. Each treatment was performed in duplicate and repeated at least twice.
Annexin V added to permeabilized cells preincubated with anti-VCAM-1•tTF inhibited the formation of factor Xa in a dose-dependent manner. In the absence of Annexin V, cell-bound coaguligand produced 95 ng of factor Xa per 10,000 cells per 60 min. The addition of increasing amounts of Annexin V (in the μg per ml range) inhibited factor Xa production. At 10 μg per ml, Annexin V inhibited factor Xa production by 58%.

[3] = system: vascular endothelium of MDA-MB-231 breast tumors; experiment: Double staining of orthotopic MDA-MB-231 tumors after i.v. biotinylated 9D2 or annexin V; format: in vivo, mice; settings: 1 h
Procedure: In further studies, mice bearing MDA-MB-231 tumors (0.3-0.7 cm^3 in volume) were injected intravenously with 50 μg of biotinylated 9D2, control IgM or annexin V (six mice per group). Biotinylated reagents were first incubated with streptavidin-Cy3 conjugate, washed in PBS, then incubated with MECA 32 antibody followed by FITC-tagged anti-rat IgG secondary antibody. Single images, taken with appropriate filters for Cy3 (red) and FITC (green) fluorescence respectively, were captured by digital camera and transferred to a computer. […] The same method was used to analyze tumors from mice injected with control rat IgM or saline. The percentage of vessels with localized 9D2 or annexin V was calculated as follows: mean number of yellow vessels per field divided by mean number of green (total) vessels multiplied by 100.
Double staining studies were also performed in which mice bearing orthotopic MDA-MB-231 breast tumors were injected intravenously with biotinylated 9D2 antibody, biotinylated control IgM or biotinylated annexin V. One hour later, the mice were exsanguinated, and their tumors were removed and frozen sections were cut. The tumor sections were then stained with Cy3-conjugated streptavidin to detect the biotinylated proteins and with FITC-conjugated MECA32 to detect vascular endothelium. […]

[4] = Phospholipid specificity ELISA; format: binding; settings: phospholipid-coated plates
Procedure: The specificity of the antibodies was determined by ELISA using plates coated with the following phospholipids: PS, phosphatidylserine; PE, phosphatidylethanolamine; PI, phosphatidylinositol; PA, phosphatidic acid; PG, phosphatidylglycerol; PC, phosphatidylcholine; CL, cardiolipin; and SM, sphingomyelin.

[5] = ELISA binding to anionic phospholipids in 5 mM EDTA (Ca2+ requirement)
Procedure: The specificity of the 9D2 antibody binding was validated by using control rat IgM of irrelevant specificity (Pharmingen, San Diego, Calif.). The specificity of annexin V binding to phospholipids, which is Ca^2+-dependent, was determined by diluting the reagent in the DPBS containing 5 mM EDTA. Additional negative controls consisted of washing the plates with the binding buffer containing 0.2% of a detergent Tween 20. This treatment extracts lipids, thus removing the phospholipid that was absorbed to plastic. Neither 9D2 antibody nor annexin V bound to detergent-washed plates.

## Annexin V: natural ligand that binds to anionic phospholipids; commercial biotinylated or recombinant human annexin V
[1]; B16 tumor
  positive vessels of MECA 32-stained vessels per field, mean ± SE: 21.3 ± 6.6%
[1]; L540cy tumor
  positive vessels of MECA 32-stained vessels per field, mean ± SE: 16.7 ± 3.9%
[1]; MDA-MB-231 tumor
  positive vessels of MECA 32-stained vessels per field, mean ± SE: 45.3 ± 5.6%
[2]
  coaguligand-induced intravascular thrombosis and changes in tumor cell morphology: completely abolished
Factor X
  inhibition of factor Xa production: 58%
[3]
  MECA 32 positive vessels that bound the reagent: About 40%
[4]
  Relative Strength of Reactivity on ELISA: PS = PE = PI = PA > CL > PG
[5]
  binding to anionic phospholipids in the presence of 5 mM EDTA: abolished in the presence of 5 mM EDTA
